# Assay: Binding affinity to avidin by surface plasmon resonance assay
row,SMILES,Kd [nM]
1,Cc1cn([C@@H]2O[C@H](COP(=O)(O)O[C@H]3[C@@H](O)[C@H](n4ccc(N)nc4=O)O[C@@H]3COP(=O)(O)O[C@H]3[C@@H](O)[C@H](n4cnc5c(=O)[nH]c(N)nc54)O[C@@H]3COP(=O)(O)O[C@H]3[C@@H](O)[C@H](n4cnc5c(=O)[nH]c(N)nc54)O[C@@H]3CO)[C@@H](OP(=O)(O)OC[C@H]3O[C@@H](n4cnc5c(N)ncnc54)[C@H](O)[C@@H]3OP(=O)(O)OC[C@H]3O[C@@H](n4cnc5c(N)ncnc54)[C@H](O)[C@@H]3OP(=O)(O)OC[C@H]3O[C@@H](n4cc(C)c(=O)[nH]c4=O)[C@H](O)[C@@H]3OP(=O)(O)OC[C@H]3O[C@@H](n4cnc5c(N)ncnc54)[C@H](O)[C@@H]3OP(=O)(O)OC[C@H]3O[C@@H](n4cnc5c(=O)[nH]c(N)nc54)[C@H](O)[C@@H]3OP(=O)(O)OC[C@H]3O[C@@H](n4cnc5c(N)ncnc54)[C@H](O)[C@@H]3OP(=O)(O)OC[C@H]3O[C@@H](n4ccc(N)nc4=O)[C@H](O)[C@@H]3OP(=O)(O)OC[C@H]3O[C@@H](n4ccc(N)nc4=O)[C@H](O)[C@@H]3OP(=O)(O)OC[C@H]3O[C@@H](n4cc(C)c(=O)[nH]c4=O)[C@H](O)[C@@H]3OP(=O)(O)OC[C@H]3O[C@@H](n4cnc5c(=O)[nH]c(N)nc54)[C@H](O)[C@@H]3OP(=O)(O)OC[C@H]3O[C@@H](n4cnc5c(=O)[nH]c(N)nc54)[C@H](O)[C@@H]3OP(=O)(O)OC[C@H]3O[C@@H](n4cnc5c(=O)[nH]c(N)nc54)[C@H](O)[C@@H]3OP(=O)(O)OC[C@H]3O[C@@H](n4cnc5c(=O)[nH]c(N)nc54)[C@H](O)[C@@H]3OP(=O)(O)OC[C@H]3O[C@@H](n4cc(C)c(=O)[nH]c4=O)[C@H](O)[C@@H]3OP(=O)(O)OC[C@H]3O[C@@H](n4cc(C)c(=O)[nH]c4=O)[C@H](O)[C@@H]3OP(=O)(O)OC[C@H]3O[C@@H](n4cnc5c(=O)[nH]c(N)nc54)[C@H](O)[C@@H]3OP(=O)(O)OC[C@H]3O[C@@H](n4cnc5c(=O)[nH]c(N)nc54)[C@H](O)[C@@H]3OP(=O)(O)O)[C@H]2O)c(=O)[nH]c1=O,9.78
2,Cc1cn([C@@H]2O[C@H](COP(=O)(O)O[C@H]3[C@@H](O)[C@H](n4ccc(N)nc4=O)O[C@@H]3COP(=O)(O)O[C@H]3[C@H]4OC[C@]3(COP(=O)(O)O[C@H]3[C@@H](O)[C@H](n5cnc6c(=O)[nH]c(N)nc65)O[C@@H]3CO)O[C@H]4n3cnc4c(=O)[nH]c(N)nc43)[C@@H](OP(=O)(O)OC[C@H]3O[C@@H](n4cnc5c(N)ncnc54)[C@H](O)[C@@H]3OP(=O)(O)OC[C@H]3O[C@@H](n4cnc5c(N)ncnc54)[C@H](O)[C@@H]3OP(=O)(O)OC[C@H]3O[C@@H](n4cc(C)c(=O)[nH]c4=O)[C@H](O)[C@@H]3OP(=O)(O)OC[C@H]3O[C@@H](n4cnc5c(N)ncnc54)[C@H](O)[C@@H]3OP(=O)(O)OC[C@H]3O[C@@H](n4cnc5c(=O)[nH]c(N)nc54)[C@H](O)[C@@H]3OP(=O)(O)OC[C@H]3O[C@@H](n4cnc5c(N)ncnc54)[C@H](O)[C@@H]3OP(=O)(O)OC[C@H]3O[C@@H](n4ccc(N)nc4=O)[C@H](O)[C@@H]3OP(=O)(O)OC[C@H]3O[C@@H](n4ccc(N)nc4=O)[C@H](O)[C@@H]3OP(=O)(O)OC[C@H]3O[C@@H](n4cc(C)c(=O)[nH]c4=O)[C@H](O)[C@@H]3OP(=O)(O)OC[C@H]3O[C@@H](n4cnc5c(=O)[nH]c(N)nc54)[C@H](O)[C@@H]3OP(=O)(O)OC[C@H]3O[C@@H](n4cnc5c(=O)[nH]c(N)nc54)[C@H](O)[C@@H]3OP(=O)(O)OC[C@H]3O[C@@H](n4cnc5c(=O)[nH]c(N)nc54)[C@H](O)[C@@H]3OP(=O)(O)OC[C@H]3O[C@@H](n4cnc5c(=O)[nH]c(N)nc54)[C@H](O)[C@@H]3OP(=O)(O)OC[C@H]3O[C@@H](n4cc(C)c(=O)[nH]c4=O)[C@H](O)[C@@H]3OP(=O)(O)OC[C@@]34CN[C@@H]([C@H](n5cc(C)c(=O)[nH]c5=O)O3)[C@@H]4OP(=O)(O)OC[C@H]3O[C@@H](n4cnc5c(=O)[nH]c(N)nc54)[C@H](O)[C@@H]3OP(=O)(O)OC[C@H]3O[C@@H](n4cnc5c(=O)[nH]c(N)nc54)[C@H](O)[C@@H]3OP(=O)(O)O)[C@H]2O)c(=O)[nH]c1=O,4.97
3,Cc1cn([C@@H]2O[C@H](COP(=O)(O)O[C@H]3[C@@H](O)[C@H](n4ccc(N)nc4=O)O[C@@H]3COP(=O)(O)O[C@H]3[C@@H](O)[C@H](n4cnc5c(=O)[nH]c(N)nc54)O[C@@H]3COP(=O)(O)O[C@H]3[C@@H](O)[C@H](n4cnc5c(=O)[nH]c(N)nc54)O[C@@H]3CO)[C@@H](OP(=O)(O)OC[C@H]3O[C@@H](n4cnc5c(N)ncnc54)[C@H](O)[C@@H]3OP(=O)(O)OC[C@H]3O[C@@H](n4cnc5c(N)ncnc54)[C@H](O)[C@@H]3OP(=O)(O)OC[C@H]3O[C@@H](n4cc(C)c(=O)[nH]c4=O)[C@H](O)[C@@H]3OP(=O)(O)OC[C@H]3O[C@@H](n4cnc5c(N)ncnc54)[C@H](O)[C@@H]3OP(=O)(O)OC[C@H]3O[C@@H](n4cnc5c(=O)[nH]c(N)nc54)[C@H](O)[C@@H]3OP(=O)(O)OC[C@H]3O[C@@H](n4cnc5c(N)ncnc54)[C@H](O)[C@@H]3OP(=O)(O)OC[C@H]3O[C@@H](n4ccc(N)nc4=O)[C@H](O)[C@@H]3OP(=O)(O)OC[C@H]3O[C@@H](n4ccc(N)nc4=O)[C@H](O)[C@@H]3OP(=O)(O)OC[C@H]3O[C@@H](n4cc(C)c(=O)[nH]c4=O)[C@H](O)[C@@H]3OP(=O)(O)OC[C@H]3O[C@@H](n4cnc5c(=O)[nH]c(N)nc54)[C@H](O)[C@@H]3OP(=O)(O)OC[C@H]3O[C@@H](n4cnc5c(=O)[nH]c(N)nc54)[C@H](O)[C@@H]3OP(=O)(O)O)[C@H]2O)c(=O)[nH]c1=O,13.1
4,COP(=O)(O)O[C@H]1[C@@H](O)[C@H](n2cnc3c(=O)[nH]c(N)nc32)O[C@@H]1COP(=O)(O)O[C@H]1[C@@H](O)[C@H](n2cnc3c(=O)[nH]c(N)nc32)O[C@@H]1COP(=O)(O)O[C@H]1[C@@H](O)[C@H](n2cc(C)c(=O)[nH]c2=O)O[C@@H]1COP(=O)(O)O[C@H]1[C@H]2NC[C@]1(COP(=O)(O)O[C@H]1[C@@H](O)[C@H](n3cnc4c(=O)[nH]c(N)nc43)O[C@@H]1COP(=O)(O)O[C@H]1[C@@H](O)[C@H](n3cnc4c(=O)[nH]c(N)nc43)O[C@@H]1COP(=O)(O)O[C@H]1[C@@H](O)[C@H](n3cnc4c(=O)[nH]c(N)nc43)O[C@@H]1COP(=O)(O)O[C@H]1[C@@H](O)[C@H](n3cnc4c(=O)[nH]c(N)nc43)O[C@@H]1COP(=O)(O)O[C@H]1[C@@H](O)[C@H](n3cc(C)c(=O)[nH]c3=O)O[C@@H]1COP(=O)(O)O[C@H]1[C@@H](O)[C@H](n3ccc(N)nc3=O)O[C@@H]1COP(=O)(O)O[C@H]1[C@@H](O)[C@H](n3ccc(N)nc3=O)O[C@@H]1COP(=O)(O)O[C@H]1[C@@H](O)[C@H](n3cnc4c(N)ncnc43)O[C@@H]1COP(=O)(O)O[C@H]1[C@@H](O)[C@H](n3cnc4c(=O)[nH]c(N)nc43)O[C@@H]1COP(=O)(O)O[C@H]1[C@@H](O)[C@H](n3cnc4c(N)ncnc43)O[C@@H]1COP(=O)(O)O[C@H]1[C@@H](O)[C@H](n3cc(C)c(=O)[nH]c3=O)O[C@@H]1COP(=O)(O)O[C@H]1[C@@H](O)[C@H](n3cnc4c(N)ncnc43)O[C@@H]1COP(=O)(O)O[C@H]1[C@@H](O)[C@H](n3cnc4c(N)ncnc43)O[C@@H]1COP(=O)(O)O[C@H]1[C@@H](O)[C@H](n3cc(C)c(=O)[nH]c3=O)O[C@@H]1COP(=O)(O)O[C@H]1[C@@H](O)[C@H](n3ccc(N)nc3=O)O[C@@H]1COP(=O)(O)O[C@H]1[C@H]3OC[C@]1(COP(=O)(O)O[C@H]1[C@@H](O)[C@H](n4cnc5c(=O)[nH]c(N)nc54)O[C@@H]1CO)O[C@H]3n1cnc3c(=O)[nH]c(N)nc31)O[C@H]2n1cc(C)c(=O)[nH]c1=O,4.2
